Results reported in PMC8698791, “Identification, Synthesis, Conformation and Activity of an Insulin-like Peptide from a Sea Anemone” (Biomolecules, 2021).
Positions of bridges follow the written chain, without caps; N, C: chain ends. Chains are numbered I, II in the order given. No end group written: not given here.

Experiments:
[1] = biological target: T1, human insulin receptor isoform B (IR-B) (Homo sapiens, UniProt P06213); experiment: Competition binding assay with europium-labelled insulin on solubilized, immunocaptured IR-B; settings: even at 10^−5 M concentration; 16 h at 4 °C, n ≥ 3
T1 construct: expressed in transfected cells; host or cells: IR-B cells (IGF-IR null mouse fibroblasts overexpressing human IR-B)
T1 sequence (P06213 28-758 limits assumed): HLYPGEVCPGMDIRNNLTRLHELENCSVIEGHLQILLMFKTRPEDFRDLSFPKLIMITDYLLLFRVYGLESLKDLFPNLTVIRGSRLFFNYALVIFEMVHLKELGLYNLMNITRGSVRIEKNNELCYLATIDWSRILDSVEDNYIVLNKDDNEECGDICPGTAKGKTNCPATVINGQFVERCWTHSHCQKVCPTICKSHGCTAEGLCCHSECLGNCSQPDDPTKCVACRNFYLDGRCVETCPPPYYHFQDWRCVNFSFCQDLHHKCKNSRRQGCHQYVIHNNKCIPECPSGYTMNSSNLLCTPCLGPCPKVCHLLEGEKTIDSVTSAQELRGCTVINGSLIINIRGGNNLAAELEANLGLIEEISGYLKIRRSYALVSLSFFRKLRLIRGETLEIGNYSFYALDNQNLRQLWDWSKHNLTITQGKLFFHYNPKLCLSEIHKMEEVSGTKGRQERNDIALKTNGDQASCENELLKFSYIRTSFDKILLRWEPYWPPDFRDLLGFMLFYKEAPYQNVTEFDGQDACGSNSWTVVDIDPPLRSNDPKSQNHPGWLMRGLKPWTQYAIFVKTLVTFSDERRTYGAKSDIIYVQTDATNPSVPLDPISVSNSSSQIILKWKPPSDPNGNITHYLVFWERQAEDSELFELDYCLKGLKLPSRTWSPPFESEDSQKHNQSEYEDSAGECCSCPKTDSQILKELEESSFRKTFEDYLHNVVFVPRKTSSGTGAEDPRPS
T1 sequence (P06213 763-1382 partner limits assumed): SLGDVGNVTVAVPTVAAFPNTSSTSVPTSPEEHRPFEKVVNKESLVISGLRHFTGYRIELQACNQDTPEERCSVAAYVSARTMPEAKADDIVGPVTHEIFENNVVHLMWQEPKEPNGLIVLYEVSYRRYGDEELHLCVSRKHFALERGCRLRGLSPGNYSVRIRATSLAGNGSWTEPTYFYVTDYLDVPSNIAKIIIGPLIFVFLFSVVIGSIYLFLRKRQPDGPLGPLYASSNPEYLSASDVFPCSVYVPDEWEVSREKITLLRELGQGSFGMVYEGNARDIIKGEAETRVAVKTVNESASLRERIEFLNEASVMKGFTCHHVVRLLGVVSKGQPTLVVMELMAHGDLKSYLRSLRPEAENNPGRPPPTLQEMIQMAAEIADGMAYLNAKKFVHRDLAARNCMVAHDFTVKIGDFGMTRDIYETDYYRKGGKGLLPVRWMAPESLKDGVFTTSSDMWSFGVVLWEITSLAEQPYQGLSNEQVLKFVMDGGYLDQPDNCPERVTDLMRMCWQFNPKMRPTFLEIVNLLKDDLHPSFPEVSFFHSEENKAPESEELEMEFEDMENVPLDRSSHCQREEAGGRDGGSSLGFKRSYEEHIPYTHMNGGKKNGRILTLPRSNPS
Method: (§1) IGF-IR and IR-B were solubilized from cells using lysis buffer (20 mM HEPES, 150 mM NaCl, 1.5 mM MgCl2, 10% (v/v) glycerol, 1% (v/v) Triton X-100, 1 mM EGTA (pH 7.5)) for 1 h at 4 °C, and lysates were centrifuged for 10 min at 3500 rpm. Solubilized IGF-1R or IR-B (100 µL) was used to coat each well of a white Greiner Lumitrac 600 plate previously coated with 24–31 anti-human IGF-1R antibody or 83-7 anti-human IR antibody. […] Wells were washed three times with 20 mM Tris, 150 mM NaCl, 0.1% (v/v) Tween 20, and then DELFIA enhancement solution (100 µL) was added. Time-resolved fluorescence was measured with 340 nm excitation and 612 nm emission filters using a Victor X4, 2030 Multilabel Reader (Perkin Elmer). All assays were repeated at least 3 times with 3 technical replicates each, except for the IlO1_i1 peptide binding IGF-IR, where 2 assays were conducted. Mean IC50 values were calculated using the statistical software package Prism v9.0.0 (GraphPad Software) after curve fitting with a nonlinear regression (one-site) model.

KV11.1 (hERG) = experiment: Two-electrode voltage-clamp on Xenopus oocytes expressing KV11.1 (hERG); type: cell-based; settings: human, Xenopus laevis oocytes expressing KV11.1 (hERG), pH 7.4, 8 µM peptide, 18–22 °C, n ≥ 3, read-out: Inhibitory activity on KV11.1 (hERG) current
Excerpt: (§2) For the expression of KV channels (mammalian rKV1.2, hKV1.3, rKV2.1, hKV3.1, rKV4.2, hKV7.2/hKV7.3, hKV10.1, hERG and Shaker IR from the fruit fly Drosophila melanogaster), NaV channels (mammalian rNaV1.2, rNaV1.3, rNaV1.4, hNaV1.5, rNaV1.6, hNaV1.7, BgNaV from the cockroach Blattella germanica, as well as the auxiliary subunits rβ1, hβ1), and the hCaV3.1 channel in Xenopus oocytes, the linearized plasmids were transcribed using the T7 or SP6 mMESSAGE-mMACHINE transcription kit (Ambion, Carlsbad, CA, USA). The harvesting of stage V–VI oocytes from an anaesthetized female Xenopus laevis frog was described previously and was in compliance with the regulations of the European Union (EU) concerning the welfare of laboratory animals as declared in Directive 2010/63/EU. The use of X. laevis oocytes was approved by the Animal Ethics Committee of the KU Leuven with the licence number P186/2019. […]
(§3) Two-electrode voltage-clamp recordings were performed at room temperature (18–22 °C) using a Geneclamp 500 amplifier (Molecular Devices, Downingtown, PA, USA) controlled by a pClamp data acquisition system (Axon Instruments, Union City, CA, USA). Whole cell currents from oocytes were recorded 1–7 days after injection. […]

hKV3.1 = experiment: Two-electrode voltage-clamp on Xenopus oocytes expressing KV3.1; type: cell-based, human; settings: 8 µM peptide, Xenopus laevis oocytes, 18–22 °C, n ≥ 3
Excerpt: as §2, §3

human IGF-1R = biological target: T2, human IGF-1R (Homo sapiens, UniProt P08069); experiment: Competition binding assay with europium-labelled IGF-I on solubilized, immunocaptured IGF-1R; settings: 16 h at 4 °C, n = 2 assays
T2 construct: expressed in transfected cells; host or cells: P6 cells (BALB/c3T3 mouse fibroblasts overexpressing IGF-IR)
T2 sequence (P08069 31-736 limits assumed): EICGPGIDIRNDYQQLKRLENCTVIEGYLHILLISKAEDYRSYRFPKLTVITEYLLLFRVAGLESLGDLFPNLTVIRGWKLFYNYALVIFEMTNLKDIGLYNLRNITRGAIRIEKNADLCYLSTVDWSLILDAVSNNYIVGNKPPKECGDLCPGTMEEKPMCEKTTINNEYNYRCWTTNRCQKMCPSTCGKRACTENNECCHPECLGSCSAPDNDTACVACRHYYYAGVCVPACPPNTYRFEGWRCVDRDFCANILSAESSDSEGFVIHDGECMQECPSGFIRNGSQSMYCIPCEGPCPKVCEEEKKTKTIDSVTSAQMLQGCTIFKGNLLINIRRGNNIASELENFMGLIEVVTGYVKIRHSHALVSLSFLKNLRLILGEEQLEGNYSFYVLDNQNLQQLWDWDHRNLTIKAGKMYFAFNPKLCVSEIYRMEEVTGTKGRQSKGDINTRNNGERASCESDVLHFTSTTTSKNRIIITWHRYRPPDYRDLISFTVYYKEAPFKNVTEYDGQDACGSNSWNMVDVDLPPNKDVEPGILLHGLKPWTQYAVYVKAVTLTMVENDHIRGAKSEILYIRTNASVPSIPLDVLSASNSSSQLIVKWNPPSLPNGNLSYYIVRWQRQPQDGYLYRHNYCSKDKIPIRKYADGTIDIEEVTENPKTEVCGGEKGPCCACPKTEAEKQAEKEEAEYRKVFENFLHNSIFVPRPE
T2 sequence (P08069 741-1367 partner limits assumed): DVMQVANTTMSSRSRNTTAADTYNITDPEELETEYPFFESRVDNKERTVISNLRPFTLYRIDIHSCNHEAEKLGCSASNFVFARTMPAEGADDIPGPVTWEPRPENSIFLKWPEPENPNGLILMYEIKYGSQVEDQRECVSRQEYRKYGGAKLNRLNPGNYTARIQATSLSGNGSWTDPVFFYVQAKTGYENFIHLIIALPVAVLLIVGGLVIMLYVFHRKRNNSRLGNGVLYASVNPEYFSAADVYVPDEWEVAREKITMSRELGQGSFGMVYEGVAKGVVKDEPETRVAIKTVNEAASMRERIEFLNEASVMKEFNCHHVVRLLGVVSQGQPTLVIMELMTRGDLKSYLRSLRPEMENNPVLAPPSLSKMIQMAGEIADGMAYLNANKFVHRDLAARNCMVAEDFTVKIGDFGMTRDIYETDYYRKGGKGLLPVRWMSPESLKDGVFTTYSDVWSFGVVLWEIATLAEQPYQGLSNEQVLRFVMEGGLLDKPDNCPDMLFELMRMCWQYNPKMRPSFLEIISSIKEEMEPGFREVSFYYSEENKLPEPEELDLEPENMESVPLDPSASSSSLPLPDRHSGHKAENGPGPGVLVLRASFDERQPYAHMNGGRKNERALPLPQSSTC
Method: as §1

rNaV1.4 = experiment: Two-electrode voltage-clamp on Xenopus oocytes expressing NaV1.4; type: cell-based, rat; settings: 8 µM peptide, Xenopus laevis oocytes, 18–22 °C, n ≥ 3
Excerpt: as §2, §3

hKV1.3 = experiment: Two-electrode voltage-clamp on Xenopus oocytes expressing KV1.3; type: cell-based, human; settings: 8 µM peptide, Xenopus laevis oocytes, 18–22 °C, n ≥ 3
Excerpt: as §2, §3

rKV1.2 = experiment: Two-electrode voltage-clamp on Xenopus oocytes expressing KV1.2; type: cell-based, rat; settings: 8 µM peptide, Xenopus laevis oocytes, 18–22 °C, n ≥ 3
Excerpt: as §2, §3

## I: INESPQTNIDYRICGDQITQKYTELCGNPAAG / II: TDIVEECCAEGCKAEEVKEYCI (disulfide I:14-II:8, I:26-II:21, II:7-II:12) [IlO1_i1]
[1]
  Ability to compete with europium-labelled insulin bound to IR-B: unable to compete
KV11.1 (hERG)
  inhibition at 8 µM: 30.5 ± 1.6%
hKV3.1
  Inhibitory activity on KV3.1 current: 12.7 ± 2.6%
Human IGF-1R
  Ability to compete with europium-labelled IGF-I binding to the IGF-1R: did not compete
rNaV1.4
  Inhibitory activity on NaV 1.4 current: 14.2 ± 2.2%
hKV1.3
  Inhibitory activity on KV1.3 current: 11.9 ± 0.9%
rKV1.2
  Inhibitory activity on KV1.2 current: 3.6 ± 1.9%
